Source: ChEMBL document CHEMBL3525911, “The development, characterization, and application of an OATP1B1 inhibition assay in drug discovery” (Drug Metab Dispos, 2012)

T1: Solute carrier organic anion transporter family member 1B1 (Homo sapiens, UniProt Q9Y6L6)
T1 sequence (Q9Y6L6 whole entry): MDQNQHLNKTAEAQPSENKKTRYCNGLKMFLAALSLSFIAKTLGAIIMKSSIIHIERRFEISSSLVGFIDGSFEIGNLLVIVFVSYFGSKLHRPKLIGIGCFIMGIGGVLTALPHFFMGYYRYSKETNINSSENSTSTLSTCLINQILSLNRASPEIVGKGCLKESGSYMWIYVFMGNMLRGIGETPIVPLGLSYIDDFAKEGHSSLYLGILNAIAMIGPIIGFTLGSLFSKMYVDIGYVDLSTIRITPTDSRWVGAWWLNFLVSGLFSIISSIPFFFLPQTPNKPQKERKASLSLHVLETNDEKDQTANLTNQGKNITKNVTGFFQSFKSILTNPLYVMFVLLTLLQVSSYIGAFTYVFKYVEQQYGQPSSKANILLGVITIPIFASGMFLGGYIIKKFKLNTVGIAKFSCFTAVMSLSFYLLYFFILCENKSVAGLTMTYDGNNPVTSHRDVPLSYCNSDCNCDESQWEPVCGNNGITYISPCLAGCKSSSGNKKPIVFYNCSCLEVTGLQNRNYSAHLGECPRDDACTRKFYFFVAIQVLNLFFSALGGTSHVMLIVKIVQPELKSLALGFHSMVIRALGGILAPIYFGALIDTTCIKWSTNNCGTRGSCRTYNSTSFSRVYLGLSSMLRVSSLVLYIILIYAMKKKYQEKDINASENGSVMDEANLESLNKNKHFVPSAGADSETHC

B1: Solute carrier organic anion transporter family member 1B1 (Homo sapiens) (protein)
chain: T1 sequence (Q9Y6L6 whole entry)

Key:
[1] = molecular target: T1, Solute carrier organic anion transporter family member 1B1; test: Inhibition of OATP1B1 (unknown origin) expressed in HEK293 cells using estradiol-17beta-glucuronide substrate; type: ADME, cell-based
[2] = molecular target: T1, Solute carrier organic anion transporter family member 1B1; test: Inhibition of OATP1B1 (unknown origin) expressed in HEK293 cells using estrone-3-sulfate substrate; type: ADME, cell-based
[3] = molecular target: T1, Solute carrier organic anion transporter family member 1B1; test: Inhibition of OATP1B1 (unknown origin) expressed in HEK293 cells using pitavastatin substrate; type: ADME, cell-based
[4] = substrate: C[C@]12CC[C@@H]3c4ccc(O)cc4CC[C@H]3[C@@H]1CC[C@@H]2O[C@@H]1O[C@H](C(=O)O)[C@@H](O)[C@H](O)[C@H]1O; test: (§1) Drug uptake in HEK293 cells expressing OATP1B1 (unknown origin) assessed as OATP1B1-mediated drug transport; type: ADME, cell-based, Homo sapiens
[5] = substrate: O=C(O)C[C@H](O)C[C@H](O)/C=C/c1c(C2CC2)nc2ccccc2c1-c1ccc(F)cc1; test: as §1; type: ADME, cell-based, Homo sapiens

Row | Molecule | IC50 [1] | IC50 [2] | IC50 [3] | Km [4] | Vmax [4] | Km [5] | Vmax [5]
1 | CO[C@H]1/C=C/O[C@@]2(C)Oc3c(C)c(O)c4c(O)c(c(/C=N/N5CCN(C)CC5)c(O)c4c3C2=O)NC(=O)/C(C)=C\C=C\[C@H](C)[C@H](O)[C@@H](C)[C@@H](O)[C@@H](C)[C@H](OC(C)=O)[C@@H]1C [RIFAMPIN] | 0.3 µM | 2.3 µM |  |  |  |  | 
2 | Cc1ccc(C)c(OCCCC(C)(C)C(=O)O)c1 [GEMFIBROZIL] | 11 µM | 130 µM | 38 µM |  |  |  | 
3 | B1 |  |  |  | 3.6 µM | 0.0002 µmol/min | 4.8 µM | 0.00045 µmol/min
